One block for each molecule: values may come before it. The source made the active and inactive calls. The calls are words filed in the database; no cut-off is given here.
How the values were obtained:
[1] = organism: Homo sapiens; assay: Binding affinity to 15N-labeled RING1B (10 to 116 residues)/BMI1 (1 to 104 residues) (unknown origin) extracted from Escherichia coli BL21 (DE3) cells assessed as ratio of chemical shift perturbations at 1:2 compound concentration ration by NMR binding analysis
[2] = organism: Homo sapiens; assay: Binding affinity to 15N-labeled RING1B (10 to 116 residues)/BMI1 (1 to 104 residues) (unknown origin) extracted from Escherichia coli BL21 (DE3) cells assessed as sum of A79, G83 and T89 chemical shift perturbations at 200 uM by NMR binding analysis
[3] = (§1) Inhibition of 6His-tagged RING1B (10 to 116 residues)/BMI1 (1 to 104 residues) (unknown origin) extracted from Escherichia coli BL21 (DE3) cells preincubated with compound for 1 hrs followed by 3-(1-(4,26-dioxo-30-((3aS,4S,6aR)-2-oxohexahydro-1H-thieno[3,4-d]imidazol-4-yl)-7,10,13,16,19,22-hexaoxa-3,25-diazatriacontyl)-6-methoxy-1H-indol-4-yl)-5-(6-fluoro-1H-indol-4-yl)-4-isopropyl-1H-pyrrole-2-carboxylic acid addition and measured after 1 hrs by Alphascreen competition assay; parameters: species or system Homo sapiens
[4] = Selectivity ratio of IC50 for inhibition of 6His-tagged RING1B (10 to 116 residues)-BMI1 (1 to 104 residues) (unknown origin) extracted from Escherichia coli BL21 (DE3) cells to IC50 for inhibition of 6His-tagged RING1A (7 to 113 residues)-BMI1 (1 to 104 residues) (unknown origin) extracted from Escherichia coli BL21 (DE3) cells
[5] = organism: Homo sapiens; assay: Binding affinity to 15N-labeled RING1B (10 to 116 residues)/BMI1 (1 to 104 residues) (unknown origin) extracted from Escherichia coli BL21 (DE3) cells assessed as sum of A79, G83 and T89 chemical shift perturbations at 100 uM by NMR binding analysis
[6] = as §1, with “RING1A (7” for “RING1B (10”, “113 residues)-BMI1” for “116 residues)/BMI1”; parameters: species or system Homo sapiens
[7] = (§2) Inhibition of RING1B (10 to 116 residues)-BMI1 (1 to 104 residues) (unknown origin) extracted from Escherichia coli BL21 (DE3) cells using HeLa nucleosome as substrate assessed as reduction in reduction in H2AK119 ubiquitination preincubated with compound for 1 hrs followed by flag-tagged ubiquitin and substrate addition and measured after 1 hrs by Western blot analysis; parameters: species or system Homo sapiens
[8] = organism: Homo sapiens; assay: as §2; conditions: time 2.0 hrs
[9] = Binding affinity to RING1B (10 to 116 residues)/BMI1 (1 to 104 residues) (unknown origin) extracted from Escherichia coli BL21 (DE3) cells assessed as dissociation constant by ITC analysis; parameters: species or system Homo sapiens
[10] = as §2, with “RING1A (7” for “RING1B (10”, “113 residues)/BMI1” for “116 residues)-BMI1”; parameters: species or system Homo sapiens
[11] = tested on: TEX; assay: Downregulation of CD34 gene expression in human TEX cells at 6.2 to 50 uM incubated for 4 days by RT-qPCR analysis; type: functional, cell-based; conditions: dose 6.2-50 µM, time 4.0 day
[12] = tested on: TEX; assay: Inhibition of PRC1 in human TEX cells assessed as decrease in global H2Aub level by measuring fold change at 6.2 uM incubated for 4 days by Western blot analysis (reference value: 1); type: cell-based; conditions: time 4.0 day
[13] = tested on: TEX; assay: Inhibition of PRC1 in human TEX cells assessed as decrease in global H2Aub level by measuring fold change at 25 uM incubated for 4 days by Western blot analysis (reference value: 1); type: cell-based; conditions: time 4.0 day
[14] = organism: Homo sapiens; assay: Binding affinity to 15N-labeled RING1A (7 to 113 residues)/BMI1 (1 to 104 residues) (unknown origin) extracted from Escherichia coli BL21 (DE3) cells assessed as chemical shift perturbation by 1H-15N HSQC spectra based NMR titration analysis; conditions: dose 30-120 µM
[15] = Binding affinity to RING1B (10 to 116 residues)/PCGF1 (30 to 138 residues) (unknown origin) assessed as dissociation constant by ITC analysis; parameters: species or system Homo sapiens
[16] = organism: Homo sapiens; assay: Binding affinity to 15N-labeled RING1B (10 to 116 residues)/BMI1 (1 to 104 residues) (unknown origin) extracted from Escherichia coli BL21 (DE3) cells assessed as chemical shift perturbation by 1H-15N HSQC spectra based NMR titration analysis; conditions: dose 30-120 µM
[17] = tested on: TEX; assay: Inhibition of PRC1 in human TEX cells assessed as decrease in global H2Aub level by measuring fold change at 3.1 uM incubated for 4 days by Western blot analysis (reference value: 1); type: cell-based; conditions: time 4.0 day
[18] = organism: Homo sapiens; assay: Binding affinity to 15N-labeled 6His-tagged RING1B (10 to 116 residues)/PCGF1 (30 to 138 residues) (unknown origin) assessed as chemical shift perturbation by 1H-15N HSQC spectra based NMR titration analysis; conditions: dose 30-120 µM
[19] = Binding affinity to RING1A (7 to 113 residues)/BMI1 (1 to 104 residues) (unknown origin) extracted from Escherichia coli BL21 (DE3) cells assessed as dissociation constant by ITC analysis; parameters: species or system Homo sapiens
[20] = as §2, with “residues)/PCGF1 (30” for “residues)-BMI1 (1”, “138 residues)(unknown” for “104 residues) (unknown”, “origin)” for “origin) extracted from Escherichia coli BL21 (DE3) cells”; parameters: species or system Homo sapiens
[21] = tested on: TEX; assay: Inhibition of PRC1 in human TEX cells assessed as decrease in global H2Aub level by measuring fold change at 12.5 uM incubated for 4 days by Western blot analysis (reference value: 1); type: cell-based; conditions: time 4.0 day
[22] = tested on: TEX; assay: Upregulation of CEBPalpha gene expression in human TEX cells at 6.2 to 50 uM incubated for 4 days by RT-qPCR analysis; type: functional, cell-based; conditions: dose 6.2-50 µM, time 4.0 day
[23] = Binding affinity to 15N-labeled RING1B (10 to 116 residues)/BMI1 (1 to 104 residues) (unknown origin) extracted from Escherichia coli BL21 (DE3) cells assessed as dissociation constant by NMR-based fragment screening analysis; parameters: species or system Homo sapiens
[24] = organism: Homo sapiens; assay: Binding affinity to 15N-labeled RING1A (7 to 113 residues)/BMI1 (1 to 104 residues) (unknown origin) extracted from Escherichia coli BL21 (DE3) cells assessed as chemical shift perturbation for amide of Gly83 residue at 60 to 120 uM by 1H-15N HSQC spectra based NMR titration analysis; conditions: dose 60-120 µM
[25] = organism: Homo sapiens; assay: Binding affinity to 15N-labeled RING1B (10 to 116 residues)/BMI1 (1 to 104 residues) (unknown origin) extracted from Escherichia coli BL21 (DE3) cells assessed as chemical shift perturbation for amide of Gly83 residue at 60 to 120 uM by 1H-15N HSQC spectra based NMR titration analysis; conditions: dose 60-120 µM

SMILES: CCc1cc(-c2c(C(=O)O)[nH]c(-c3cc(F)cc4[nH]ccc34)c2C(C)C)c2cc[nH]c2c1
Ratio [1]: 0.92
Activity [2]: 309 Hz
IC50 [3]: 5.4 µM
Ratio IC50 [4]: 2
Activity [5]: 285 Hz
IC50 [6]: 3.2 µM

SMILES: CC(C)c1c(-c2cc(C(F)(F)F)cc3[nH]ccc23)[nH]c(C(=O)O)c1-c1c(Cl)ccc2[nH]ccc12
IC50 [7]: 6.7 µM
inhibition [8]: Dose-dependent-effect; Inhibition Of E3 Ligase Activity Of Prc1 Observed
IC50 [3]: 7.2 µM

SMILES: CC(c1c(-c2cccc3[nH]ccc23)[nH]c(C(=O)O)c1-c1cccc2[nH]ccc12)C(F)F (stereo not drawn)
Ratio [1]: 0.81
Activity [2]: 264 Hz
IC50 [3]: 8.2 µM
Ratio IC50 [4]: 2
Activity [5]: 215 Hz
IC50 [6]: 4.3 µM

SMILES: Cc1cc(-c2[nH]c(C(=O)O)c(-c3c(Cl)ccc4[nH]ccc34)c2C(C)C)c2cc[nH]c2c1
IC50 [3]: 5.8 µM
Ratio IC50 [4]: 2
IC50 [6]: 2.5 µM

SMILES: CCc1c(-c2cccc3[nH]ccc23)[nH]c(C(=O)O)c1-c1cccc2[nH]ccc12
IC50 [7]: 19.3 µM
inhibition [8]: Dose-dependent-effect; Inhibition Of E3 Ligase Activity Of Prc1 Observed
Ratio [1]: 0.63
Activity [2]: 163 Hz
Kd [23]: 9 µM
IC50 [3]: 13 µM
Activity [5]: 102 Hz

SMILES: COc1cc(-c2c(C(=O)O)[nH]c(-c3cc(F)cc4[nH]ccc34)c2C(C)C)c2ccn(CCNC(=O)CCOCCOCCOCCOCCOCCOCCNC(=O)CCCC[C@@H]3SC[C@@H]4NC(=O)N[C@@H]43)c2c1
Activity [24]: Active
Activity [25]: Active

Now from value to molecule, other results behind:

Ratio [1]: 0.82
Activity [2]: 319 Hz
IC50 [3]: 4.8 µM
Ratio IC50 [4]: 2
Activity [5]: 261 Hz
IC50 [6]: 2.6 µM
SMILES: Cc1cc(-c2c(C(=O)O)[nH]c(-c3cc(F)cc4[nH]ccc34)c2C(C)C)c2cc[nH]c2c1

Ratio [1]: 0.94
Activity [2]: 329 Hz
IC50 [3]: 3.3 µM
Activity [5]: 308 Hz
SMILES: CC(C)c1c(-c2cc(F)cc3[nH]ccc23)[nH]c(C(=O)O)c1-c1cccc2[nH]ccc12
Kd [9]: 4 µM

IC50 [7]: 2.8 µM
Ratio [1]: 0.83
IC50 [10]: 2.6 µM
Activity [2]: 299 Hz
IC50 [3]: 2.3 µM
Activity [14]: Dose-dependent-effect
Kd [15]: 1.7 µM
Activity [16]: Dose-dependent-effect
Activity [5]: 248 Hz
Activity [18]: Dose-dependent-effect
IC50 [20]: 1.8 µM
IC50 [6]: 2.4 µM
SMILES: CC(C)c1c(-c2cc(F)cc3[nH]ccc23)[nH]c(C(=O)O)c1-c1c(Cl)ccc2[nH]ccc12
Activity [11]: Active
fold change (FC) [12]: 0.9
Kd [9]: 2 µM
fold change (FC) [13]: 0.17
fold change (FC) [17]: 1.7
Kd [19]: 1.7 µM
fold change (FC) [21]: 0.88
Activity [22]: Active

Ratio [1]: 0.95
Activity [2]: 311 Hz
IC50 [3]: 3.6 µM
Activity [5]: 295 Hz
SMILES: CC(C)c1c(-c2cccc3[nH]ccc23)[nH]c(C(=O)O)c1-c1cccc2[nH]ccc12
Kd [9]: 6.5 µM

From ChEMBL document CHEMBL6096680, “Development of PRC1 Inhibitors Employing Fragment-Based Approach and NMR-Guided Optimization” (J Med Chem, 2025)
